# From patent publication US5140009A (Tap Pharmaceuticals, Inc., priority 1990, dated 1992)
# Numbered stars: 1 amine (or outer) side, 2 acyl side, 3 side chain; on linkers, the order of the positions; unused ones are H or OH. Square brackets hold non-standard residues; d marks the D form. Peptide text beside a SMILES is read from it. * marks the point of attachment. Propanoyl(3-indol-3-yl) = O=C(CCc1c[nH]c2ccccc12)*; Propanoyl(3-(4-F-phenyl)) = O=C(CCc1ccc(F)cc1)*; Hydrocinnamoyl(2,4-F2) = O=C(CCc1ccc(F)cc1F)*; Propanoyl(3-(4-Cl-Ph)) = O=C(CCc1ccc(Cl)cc1)*; Acetyl(1-naphthyl) = O=C(Cc1cccc2ccccc12)*; Phe(4-Cl) = N[C@@H](Cc1ccc(Cl)cc1)C(=O)O; Phenylacetyl(4-Cl) = O=C(Cc1ccc(Cl)cc1)*; Desaminohistidyl = O=C(CCc1c[nH]cn1)*; Desaminotyrosyl = O=C(CCc1ccc(O)cc1)*; NMeY = CN[C@@H](Cc1ccc(O)cc1)C(=O)O; d2Thi = N[C@H](Cc1cccs1)C(=O)O; dCha = N[C@H](CC1CCCCC1)C(=O)O; NMeL = CN[C@@H](CC(C)C)C(=O)O; NHPhenethyl = c1ccc(CCN*)cc1; Nicotinoyl = O=C(c1cccnc1)*; Picolinoyl = O=C(c1ccccn1)*; X14 = O=C(CCn1ccc2ccccc21)*; Morpholide = C1CN(*)CCO1; X4 = O=C(CCc1cccc(F)c1)*; CO = O=C([*:1])[*:2]; Bn = c1ccc(C*)cc1
# Target: T1, LHRH receptors (Rattus norvegicus, UniProt P30969)
# T1 construct: Pituitary membranes containing LHRH receptors are prepared in batches from quick-frozen rat pituitaries; tissue Hilltop Labs; host or cells: rat pituitary membranes
# T1 sequence (P30969 1-327): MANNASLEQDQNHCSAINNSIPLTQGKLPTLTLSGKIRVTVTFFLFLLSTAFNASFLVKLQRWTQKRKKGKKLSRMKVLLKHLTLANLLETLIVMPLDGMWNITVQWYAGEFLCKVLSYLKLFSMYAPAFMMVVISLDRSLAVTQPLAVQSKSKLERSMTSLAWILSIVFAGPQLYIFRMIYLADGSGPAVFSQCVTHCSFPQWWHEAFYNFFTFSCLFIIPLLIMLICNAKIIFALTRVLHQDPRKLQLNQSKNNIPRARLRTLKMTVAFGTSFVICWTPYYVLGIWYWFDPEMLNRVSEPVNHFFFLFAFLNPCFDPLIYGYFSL
# Assay: Receptor Binding (radioligand receptor binding assay)
# Conditions: table 3; rat pituitary membranes, radioiodinated [D-Leu^6 -des Gly^10 ]-LHRH ethyl amide 50 pM, 2 hours at 4° C.; read-out: Receptor Binding pkI (converted)
row,Structure (SMILES),Ki
1,"CCNC(=O)[C@@H]1CCCN1C(=O)[C@H](CCCNC(=N)N)NC(=O)[C@H](CC(C)C)NC(=O)[C@@H](CC1CCCCC1)NC(=O)[C@H](Cc1ccc(O)cc1)NC(=O)[C@H](CO)NC(=O)CCn1ccc2ccccc21 [Compound 34, (4-9)[N-(3-(1-Indole)propionyl)-Ser^4 -D-Cha^6 -Pro^9 -NHEt]LHRH] (X14-SY[dCha]LRP-NHEt)",41.7 nM
2,"CCNC(=O)[C@@H]1CCCN1C(=O)[C@H](CCCN=C(N)N)NC(=O)[C@H](CC(C)C)NC(=O)[C@@H](Cc1c[nH]c2ccccc12)NC(=O)[C@H](Cc1ccc(O)cc1)NC(=O)[C@@H]1CCCN1C(=O)[C@@H](Cc1c[nH]c2ccccc12)NC(=O)CCc1ccc(F)cc1 [Compound 100, (3-9)[N-(3-(4-Fluorophenyl)propionyl)-D -Trp^3,6 -Pro^4,9 NHEt]LHRH] ({Propanoyl(3-(4-F-phenyl))}-[dW]PY[dW]LRP-NHEt)",2.88 nM
3,"CCNC(=O)[C@@H]1CCCN1C(=O)[C@H](CCCNC(=N)N)NC(=O)[C@H](CC(C)C)NC(=O)[C@@H](Cc1c[nH]c2ccccc12)NC(=O)[C@H](Cc1ccc(O)cc1)NC(=O)[C@H](CO)NC(=O)[C@H](Cc1c[nH]c2ccccc12)NC(=O)[C@H](Cc1c[nH]cn1)NC(=O)CCc1cnc[nH]1 [Compound 69, N-(3-(5-Imidazolyl)propionyl)-His-Trp-Ser-Tyr-D-Trp-Leu-Arg-Pro-NHEt] (Desaminohistidyl-HWSY[dW]LRP-NHEt)",1.05 nM
4,"CCNC(=O)[C@@H]1CCCN1C(=O)[C@H](CCCNC(=N)N)NC(=O)[C@H](CC(C)C)NC(=O)[C@@H](CC1CCCCC1)NC(=O)[C@H](Cc1ccc(O)cc1)NC(=O)[C@H](COCc1ccccc1)NC(=O)Cc1cccc2ccccc12 [Compound 33, (4-9)[N-(1-Naphthylacetyl)-Ser^4 (OBzl)-D-Cha^6 -Pro^9 -NHEt]LHRH] ({Acetyl(1-naphthyl)}-S(Bn)Y[dCha]LRP-NHEt)",13.8 nM
5,"CCNC(=O)[C@@H]1CCCN1C(=O)[C@H](CCCNC(=N)N)NC(=O)[C@H](CC(C)C)NC(=O)[C@@H](Cc1c[nH]c2ccccc12)NC(=O)[C@H](Cc1ccc(O)cc1)NC(=O)[C@H](CO)NC(=O)[C@H](Cc1c[nH]c2ccccc12)NC(=O)[C@H](Cc1ccccc1)NC(=O)NCCc1ccccc1 [Compound 124, (2-9)[N-(N-alpha-Phenethylaminocarbonyl)-Phe^2 -D-Trp^6 -Pro^9 NHEt]LHRH] ({NHPhenethyl-CO}-FWSY[dW]LRP-NHEt)",0.347 nM
6,"CCNC(=O)[C@@H]1CCCN1C(=O)[C@H](CCCNC(=N)N)NC(=O)[C@H](CC(C)C)NC(=O)[C@@H](Cc1c[nH]c2ccccc12)NC(=O)[C@H](Cc1ccc(O)cc1)NC(=O)[C@H](CO)NC(=O)[C@H](Cc1c[nH]c2ccccc12)NC(=O)Cc1ccc(Cl)cc1 [Compound 104, (3-9)[N-(4-Chlorophenyl)acetyl-Trp^3 -D-Trp^6 -Pro^9 NHEt]LHRH] ({Phenylacetyl(4-Cl)}-WSY[dW]LRP-NHEt)",0.832 nM
7,"CCNC(=O)[C@@H]1CCCN1C(=O)[C@H](CCCNC(=N)N)NC(=O)[C@H](CC(C)C)NC(=O)[C@@H](Cc1c[nH]c2ccccc12)NC(=O)[C@H](Cc1ccc(O)cc1)NC(=O)[C@H](CO)NC(=O)[C@H](Cc1c[nH]c2ccccc12)NC(=O)[C@H](Cc1ccccc1)NC(=O)N1CCOCC1 [Compound 59, N-alpha-Morpholinocarbonyl-Phe-Trp-Ser-Tyr-D-Trp-Leu-Arg-ProNHET] ({Morpholide-CO}-FWSY[dW]LRP-NHEt)",0.00832 nM
8,"CCNC(=O)[C@@H]1CCCN1C(=O)[C@H](CCCNC(=N)N)NC(=O)[C@H](CC(C)C)NC(=O)[C@@H](Cc1c[nH]c2ccccc12)NC(=O)[C@H](Cc1ccc(O)cc1)NC(=O)[C@H](CO)NC(=O)[C@H](Cc1c[nH]c2ccccc12)NC(=O)[C@H](Cc1ccc(Cl)cc1)NC(=O)N1CCOCC1 [Compound 112, (2-9)[N-(N-alpha-Morpholinocarbonyl)-4-Cl -Phe^2 -D-Trp^6 -Pro^9 NHEt]LHRH] ({Morpholide-CO}-[Phe(4-Cl)]WSY[dW]LRP-NHEt)",0.316 nM
9,"CCNC(=O)[C@@H]1CCCN1C(=O)[C@H](CCCN=C(N)N)NC(=O)[C@H](CC(C)C)NC(=O)[C@@H](Cc1c[nH]c2ccccc12)NC(=O)[C@H](Cc1ccc(O)cc1)NC(=O)[C@H](CO)NC(=O)[C@H](Cc1c[nH]c2ccccc12)NC(=O)CCc1ccc(O)cc1 [Compound 99, (3-9)[N-(3-(4-Hydroxyphenyl)propionyl) -Trp^3 -D-Trp^6 -Pro^9 NHEt]LHRH] (Desaminotyrosyl-WSY[dW]LRP-NHEt)",0.0832 nM
10,"CCNC(=O)CC[C@@H](NC(=O)[C@H](Cc1ccc(O)cc1)NC(=O)[C@H](CO)NC(=O)CCc1c[nH]c2ccccc12)C(=O)N[C@@H](CC(C)C)C(=O)N[C@@H](CCCNC(=N)N)C(=O)N1CCC[C@H]1C(=O)NCC [Compound 51, N-(3-(3-Indole)propionyl)-Ser-Tyr-N-delta-ethyl-D-Gln-Leu-Arg-ProNHEt] ({Propanoyl(3-indol-3-yl)}-SY[dE](NHEt)LRP-NHEt)",132 nM
11,CCNC(=O)[C@@H]1CCCN1C(=O)[C@H](CCCNC(=N)N)NC(=O)[C@H](CC(C)C)NC(=O)[C@@H](CCCCNC(=O)c1ccccn1)NC(=O)[C@H](Cc1ccc(O)cc1)NC(=O)[C@H](CO)NC(=O)CCc1c[nH]c2ccccc12 [Compound 53] ({Propanoyl(3-indol-3-yl)}-SY[dK](Picolinoyl)LRP-NHEt),27.5 nM
12,"CCNC(=O)[C@@H]1CCCN1C(=O)[C@H](CCCN=C(N)N)NC(=O)[C@H](CC(C)C)NC(=O)[C@@H](Cc1c[nH]c2ccccc12)NC(=O)[C@H](Cc1ccc(O)cc1)NC(=O)[C@H](CO)NC(=O)[C@@H](Cc1c[nH]c2ccccc12)NC(=O)CCc1ccc(F)cc1F [Compound 90, (3-9)[N-(3-(2,4-Difluorophenyl)propionyl) -D-Trp^3,6 -Pro^9 NHEt]LHRH] ({Hydrocinnamoyl(2,4-F2)}-[dW]SY[dW]LRP-NHEt)",0.0316 nM
13,"CCNC(=O)[C@@H]1CCCN1C(=O)[C@H](CCCNC(=N)N)NC(=O)[C@H](CC(C)C)N(C)C(=O)[C@@H](Cc1c[nH]c2ccccc12)NC(=O)[C@H](Cc1ccc(O)cc1)NC(=O)[C@H](CO)NC(=O)CCc1c[nH]c2ccccc12 [Compound 46, N-(3-(3-Indole)propionyl)Ser-Tyr-D-Trp-N-Me-Leu-Arg-Pro-NHEt] ({Propanoyl(3-indol-3-yl)}-SY[dW][NMeL]RP-NHEt)",11 nM
14,"CCNC(=O)[C@@H]1CCCN1C(=O)[C@H](CCCNC(=N)N)NC(=O)[C@H](CC(C)C)NC(=O)[C@@H](CCCNC(=N)N)NC(=O)[C@H](Cc1ccc(O)cc1)NC(=O)[C@H](CO)NC(=O)Cc1cccc2ccccc12 [Compound 37, (4-9)[N-(1-Naphthylacetyl)-Ser^4 -D-Arg^6 -Pro^9 -NHEt] LHRH] ({Acetyl(1-naphthyl)}-SY[dR]LRP-NHEt)",20.4 nM
15,"CCNC(=O)[C@@H]1CCCN1C(=O)[C@H](CCCNC(=N)N)NC(=O)[C@H](CC(C)C)NC(=O)[C@@H](Cc1c[nH]c2ccccc12)NC(=O)[C@H](Cc1ccc(O)cc1)NC(=O)[C@H](CO)NC(=O)Cc1ccc(Cl)cc1 [Compound 75, (4-9)[N-(3-(4-Chlorophenyl)acetyl) -Ser^4 -D-Trp^6 -Pro^9 NHEt]LHRH] ({Phenylacetyl(4-Cl)}-SY[dW]LRP-NHEt)",7.08 nM

# Same assay, conditions: table 4; rat pituitary membranes, radioligand 50 pM, 2 hours at 4° C.; read-out: Receptor Binding pkI (converted)
row,Structure (SMILES),Ki
1,"CC(C)C[C@H](NC(=O)[C@@H](CCCCNC(=O)c1cccnc1)NC(=O)[C@H](Cc1ccc(O)cc1)N(C)C(=O)[C@H](CO)NC(=O)[C@@H](Cc1cccs1)NC(=O)CCc1ccc(F)cc1)C(=O)N[C@@H](CCCNC(=N)N)C(=O)N1CCC[C@H]1C(=O)N[C@H](C)C(N)=O [Compound 161, N-[3-(4-Fluorophenyl)propionyl]-D-Thia-Ser-NMeTyr-D -Lys(N-epsilon-nicotinyl)-Leu-Arg-Pro-D-AlaNH2] ({Propanoyl(3-(4-F-phenyl))}-[d2Thi]S[NMeY][dK](Nicotinoyl)LRP[dA]-NH2)",0.0151 nM
2,"CCNC(=O)[C@@H]1CCCN1C(=O)[C@H](CCCN=C(N)N)NC(=O)[C@H](CC(C)C)NC(=O)[C@@H](CCCCNC(=O)c1cccnc1)NC(=O)[C@H](Cc1ccc(O)cc1)N(C)C(=O)[C@H](CO)NC(=O)[C@@H](Cc1c[nH]c2ccccc12)NC(=O)CCc1cccc(F)c1 [Compound 153, (3-9)[N-(3-(3-Fluorophenyl)propionyl) -D-Trp^3 -NMeTyr^5 -D-Lys^6 (N-epsilon-nicotinyl)-Pro ^9 NHEt]LHRH] (X4-[dW]S[NMeY][dK](Nicotinoyl)LRP-NHEt)",0.024 nM
3,"CCNC(=O)[C@@H]1CCCN1C(=O)[C@H](CCCN=C(N)N)NC(=O)[C@H](CC(C)C)NC(=O)[C@@H](Cc1c[nH]c2ccccc12)NC(=O)[C@H](Cc1ccc(O)cc1)NC(=O)[C@H](CO)NC(=O)[C@@H](Cc1ccc(O)cc1)NC(=O)CCc1ccc(F)cc1 [Compound 141, (3-9)[N-(3-(4-Fluorophenyl)propionyl) -D-Tyr^3 -D-Trp^6 -Pro^9 NHEt]LHRH] ({Propanoyl(3-(4-F-phenyl))}-[dY]SY[dW]LRP-NHEt)",0.0257 nM
4,"CCNC(=O)[C@@H]1CCCN1C(=O)[C@H](CCCN=C(N)N)NC(=O)[C@H](CC(C)C)NC(=O)[C@@H](CCCCNC(=O)c1cccnc1)NC(=O)[C@H](Cc1ccc(O)cc1)N(C)C(=O)[C@H](CO)NC(=O)[C@@H](Cc1c[nH]c2ccccc12)NC(=O)CCc1ccc(Cl)cc1 [Compound 154, (3-9)[N-(3-(4-Chlorophenyl)propionyl) -D-Trp^3 -NMeTyr^5 -DLys^6 (N-epsilon-nicotinyl)-Pro ^9 NHEt]LHRH] ({Propanoyl(3-(4-Cl-Ph))}-[dW]S[NMeY][dK](Nicotinoyl)LRP-NHEt)",0.0316 nM
